According to patent publication EP2465859A1, “8-Triazolylxanthine derivatives, processes for their production and their use as adenosine receptor antagonists” (Life & Brain GmbH, priority 2010, dated 2012):
pEC50, pIC50: −log10 of the molar value.

How the values were obtained:
Format in all cases: cell-based
[1] = tested on: TNFα expression in ESdM cells; assay: ELISA assay: TNFα expression in ESdM cells stimulated with LPS and NECA or adenosine; conditions: for pIC50: 24 h, LPS-induced TNFα expression in the presence of NECA (100 nM NECA, 100 ng/ml LPS), read-out: EC50 (the source's name); for TNF alpha expression: 100 nM NECA, various antagonist concentrations; for functional character at human A2B adenosine receptors: conclusion from the ELISA functional experiment
Method: With the ELISA assay in Fig. 5 the effects of adenosine receptor antagonists were investigated. […] In the presence of the antagonists to be investigated, the influence on the TNFα expression was analyzed. The cytokine expression was determined in the ELISA.
The determined EC50 concentration amounted to 60 nM. ESdM cells were stimulated with 100 nM of NECA and 100 ng/ml of LPS, and the A2B antagonist 1a was added to the stimulated cells at various concentrations for 24 h. The supernatants of the cells were investigated for TNFα expression in an ELISA.
Example 53: ELISA Assay The ELISA assay was used to investigate the effects of adenosine antagonists. […] In the presence of the antagonists to be investigated, their influence on TNFα expression was analyzed. The cytokine expression was determined in the ELISA (Fig. 5).
To evaluate, whether ESdM cells can be stimulated by Adenosine 3 x 10^5 ESdM cells were seeded in 12 wells. The next day the cells have been stimulated with 1 µM Adenosine (Sigma-Aldrich) and different concentrations of LPS (10 ng/ml, 100 ng/ml and 500 ng/ml, Sigma-Aldrich). Supernatants were collected 24 hours later and were analysed for TNFα expression in an ELISA (EBioscience). As shown here (Fig. 6A), ESdM cells are sensitive for stimulation with 1 µM adenosine. Best results are achieved with a LPS concentration of 100 ng/ml, whereas 500 ng/ml of LPS provide […] detectable TNFα values.
To examine, if ESdM cells can also be stimulated with the synthetic adenosine receptor agonist NECA, ESdM cells were seeded in 12 wells in the same concentration as mentioned before. These cells were treated with different concentrations of NECA (1 µM and 100 nM) and 100 ng/ml LPS. The next day supernatants were collected and analysed for TNFα expression.
To analyse the effect of the A2B antagonist 1a, 3 x 10^5 ESdM cells were seeded in 12 wells. The next day cells were stimulated with 100 nM NECA, 100 ng/ml LPS and various concentrations (10 pM-10 nM) of A2B-receptor antagonist 1a Supernatants of the cells were investigated for TNFα expression in an ELISA.

human A2B receptor = target: T1, human A2B receptor (Homo sapiens, UniProt P29275); assay: cAMP assay in HEK cells recombinantly expressing the human A2B receptor
T1 construct: expressed in transfected cells; host or cells: HEK cells
T1 sequence (P29275 1-332): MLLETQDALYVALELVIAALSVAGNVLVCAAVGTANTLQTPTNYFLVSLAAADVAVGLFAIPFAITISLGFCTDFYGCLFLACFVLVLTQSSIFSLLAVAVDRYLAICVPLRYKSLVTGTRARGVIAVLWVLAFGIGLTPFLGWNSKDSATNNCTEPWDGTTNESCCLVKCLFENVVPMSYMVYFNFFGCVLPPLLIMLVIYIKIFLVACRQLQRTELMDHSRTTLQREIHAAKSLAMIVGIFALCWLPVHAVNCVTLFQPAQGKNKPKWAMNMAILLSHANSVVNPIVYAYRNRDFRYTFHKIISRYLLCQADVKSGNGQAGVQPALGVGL
Method: Example 52: cAMP assay The preparation of cAMP binding protein was carried out as previously described by Nordstedt and Fredholm (Anal. Biochem. 1990, 189, 231-234). 5'-(N-Ethylcarboxamido)adenosine (NECA) was obtained from Sigma. For cAMP experiments HEK cells, expressed the human recombinant A2B receptor were removed from a confluent 175 cm^2 flask, transferred into a falcon tube and spun down at 200 g, 4 °C for 5 min. After removal of the supernatant, the cell pellet was resuspended in Hank's buffered saline solution (HBSS, pH 7.4). 200 µl of the cell solution (∼ 200.000 cells per well) with 2 U/ml ADA was transferred into each well of a 24-well plate. After an incubation time of 1.5 h at 37 °C, 5 % CO2, 25 µL of the phosphodiesterase (PDE) inhibitor Ro-20-1724 (40 µM f.c.), dissolved in 100 % HBSS-puffer was added to each well and incubated for 10 min at 37 °C. […] After 10 min incubation time 12.5 µl of agonist (NECA) dissolved in the same buffer as well, was added and incubated for 15 min at 37 °C. NECA was incubated in concentrations of 10 µM and 1 µM alone as an control experiment. […] Well plates were put on ice and each well was subsequently homogenised by pipetting 6-7 times up and down. Competition binding experiments were performed in a final volume of 120 µl containing 50 µl of cell lysates, 30 µl of [^3H]cAMP (f.c. 3 nM) in lysis buffer (4 mM EDTA, 0.01 % trition X-100) and 40 µl of cAMP binding protein in the same buffer (50 µg protein per vial). Total binding was determined in the absence of cold cAMP and nonspecific binding was determined in the absence of cold cAMP and without binding protein. For a cAMP standard curve 50 µl of known cAMP concentration was put instead of 50 µl cell lysate. […] Then, filters were transferred to vials, incubated for 9 h with 2.5 mL of scintillation cocktail (Beckmann Coulter), and counted in a liquid scintillation counter (Tricarb 2700TR) with a counting efficiency of ∼ 54%.

[2] = target: T2, human adenosine A2B receptor (Homo sapiens, UniProt P29275); assay: cAMP assay in CHO cells recombinantly expressing the human adenosine A2B receptor (NECA dose-response curve shift); conditions: for NECA-induced increase in cAMP formation / mode of antagonism (NECA curve shifted to the right): single antagonist concentration, ~5-fold of the Ki value
T2 construct: expressed in transfected cells; host or cells: CHO cells
T2 sequence (P29275 1-332): T1 sequence (P29275 1-332)
Method: Dose-response curves for the agonist NECA were determined in the absence and in the presence of a single concentration of the new antagonists 1d and 1f, using a ∼ 5-fold concentration of the Ki-values.

Row | SMILES | pIC50 ([1]; ESdM cells) | TNF alpha expression ([1]; ESdM cells, 100 ng/ml LPS) | functional character at human A2B adenosine receptors [1] | further results
1 | Cn1c(=O)c2[nH]c(-c3cn(Cc4cccc(C(F)(F)F)c4)nn3)nc2n(C)c1=O [1a, 1,3-Dimethyl-8-(1-(3-(trifluoromethyl)benzyl)-1H-1,2,3-triazol-4-yl)-1H-purine-2,6(3H,7H)-dione] | 5.59 | dose-dependent decrease | confirmed as antagonists | pEC50 ([1]; ESdM cells, 100 nM NECA and 100 ng/ml LPS, antagonist for 24 h, TNFα in supernatant (Fig. 7A), read-out: EC50 concentration): 7.22; NECA-induced increase in cAMP formation (human A2B receptor; NECA 10 µM and 1 µM, antagonist 5 µM): inhibited; effect on cAMP levels of the compound itself (human A2B receptor; compound alone): no effect
2 | CCn1c(=O)c2[nH]c(-c3cn(Cc4cccc(C(F)(F)F)c4)nn3)nc2n(CC)c1=O [1b, 1,3-Diethyl-8-(1-(3-(trifluoromethyl)benzyl)-1H-1,2,3-triazol-4-yl)-1H-purine-2,6(3H,7H)-dione] | 5.96 | dose dependent decrease | confirmed as antagonists | –
3 | CCCn1c(=O)[nH]c2nc(-c3cn(Cc4cccc(C(F)(F)F)c4)nn3)[nH]c2c1=O [1d, 1-Propyl-8-(1-(3-(trifluoromethyl)benzyl)-1H-1,2,3-triazol-4-yl)-1H-purine-2,6(3H,7H)-dione] | 5.95 | dose dependent decrease | confirmed as antagonists | NECA-induced increase in cAMP formation [2]: inhibited; mode of antagonism (NECA curve shifted to the right) [2]: competitive antagonism
4 | C#CCn1c(=O)c2[nH]c(-c3cn(Cc4cccc(C(F)(F)F)c4)nn3)nc2n(C)c1=O [1f, 3-Methyl-1-(prop-2-ynyl)-8-(1-(3-(trifluoromethyl)-benzyl)-1H-1,2,3-triazol-4-yl)-1H-purine-2,6(3H,7H)-dione] | 5.87 | dose dependent decrease | confirmed as antagonists | NECA-induced increase in cAMP formation [2]: inhibited; mode of antagonism (NECA curve shifted to the right) [2]: competitive antagonism
5 | Cn1c(=O)n(CC2CC2)c(=O)c2[nH]c(-c3cn(Cc4cccc(C(F)(F)F)c4)nn3)nc21 [1g, 1-(Cyclopropylmethyl)-3-methyl-8-(1-(3-(trifluoromethyl)benzyl)-1H-1,2,3-triazol-4-yl)-1H-purine-2,6(3H,7H)-dione] | 5.63 | dose dependent decrease | confirmed as antagonists | –
6 | CCNC(=O)[C@H]1O[C@@H](n2cnc3c(N)ncnc32)[C@H](O)[C@@H]1O [NECA, 5'-(N-Ethylcarboxamido)adenosine, reference compound] | – | – | – | stimulation of TNFα expression in ESdM cells following LPS stimulation ([1]; 1 µM and 100 nM NECA, 100 ng/ml LPS): sensitive; cAMP formation (human A2B receptor; agonist, 10 µM and 1 µM): concentration-dependent increase; cAMP formation ([2]; agonist dose-response curve): concentration-dependent increase
7 | Nc1ncnc2c1ncn2[C@@H]1O[C@H](CO)[C@@H](O)[C@H]1O [adenosine] | – | – | – | stimulation of TNFα expression in ESdM cells following LPS stimulation ([1]; 1 µM adenosine, LPS 10, 100 and 500 ng/ml, 24 hours): sensitive
